# Laboratory results taken from paper PMC8667612 (Journal of medicinal chemistry, 2021).
# Values joined by “and” are separate entries in the source; they are usually repeats but may differ in a detail not shown here. Identical values can stand only once.
# How the values were obtained:
# N. fowleri trophozoites = assay: N. fowleri cellular growth inhibition assay; format: cell-based; settings: Naegleria fowleri, 96 h, read-out: minimal inhibitory concentration (MIC)
# [1] = Blood–brain permeability assay, multiple oral doses; format: in vivo, BALB/c mice; settings: mice, oral gavage 25 mg/kg twice a day for 5 days, samples 4 h after each administration
# N. fowleri CYP51 [2] = biological target: T1, N. fowleri CYP51 (Naegleria fowleri, UniProt A0A6A5BCR7, E4K/I5A/S2A, form not given)
# [3] = cited from earlier work
# N. fowleri CYP51 [4] = biological target: T1, N. fowleri CYP51; format: binding; settings: Type I spectral response, ~2 μM P450
# N. fowleri CYP51 [5] = biological target: T1, N. fowleri CYP51; format: biochemical; settings: 0.5 μM P450, 60 s at 37 °C, sterol 3–50 μM
Structure (SMILES),concentration giving complete inhibition of N. fowleri CYP51 activity (N. fowleri CYP51 [2]) [µM],low- to high-spin state transition in the heme iron (N. fowleri CYP51 [4]) [%],other results
"O=C(N[C@@H](Cn1ccnc1)c1c(F)cc(-c2ccc(F)cc2)cc1F)c1ccc(-c2nnc(-c3ccccc3)o2)cc1 [F-VFV, (R)-N-(2-(1H-imidazol-1-yl)-1-(3,4’,5-trifluoro-[1,1’-biphenyl]-4-yl)ethyl)-4-(5-phenyl-1,3,4-oxadiazol-2-yl)benzamide]",3.0,,MIC (N. fowleri trophozoites): 3.3 µM and 1.9 µg/mL; average concentration in the brain [1]: 2.2 ± 0.2 µM; NOAEL [3]: > 200 mg/kg
"O=C(N[C@@H](Cn1ccnc1)c1ccc(Cl)cc1Cl)c1ccc(-c2nnc(-c3ccc(C(F)(F)F)c(F)c3)o2)cc1 [FCF3-VNI, (R)-N-(1-(2,4-dichlorophenyl)-2-(1H-imidazol-1-yl)ethyl)-4-(5-(3-fluoro-4-(trifluoromethyl)phenyl)-1,3,4-oxadiazol-2-yl)benzamide]",> 50,,
"O=C(N[C@@H](Cn1ccnc1)c1ccc(Cl)cc1Cl)c1ccc(-c2nnc(-c3ccc(F)c(F)c3)o2)cc1 [FF-VNI, (R)-N-(1-(2,4-dichlorophenyl)-2-(1H-imidazol-1-yl)-ethyl)-4-(5-(3,4-difluorophenyl)-1,3,4-oxadiazol-2-yl)-benzamide]",6,,MIC (N. fowleri trophozoites): 2.7 µM and 1.5 µg/mL; average concentration in the brain [1]: 3.5 ± 0.3 µM; NOAEL [3]: > 200 mg/kg
"O=C(N[C@@H](Cn1ccnc1)c1ccc(-c2ccc(F)cc2)cc1F)c1ccc(-c2nnc(-c3ccccc3)o2)cc1 [VFV, (R)-N-(1-(3,4’-difluoro-[1,1’-biphenyl]-4-yl)-2-(1H-imidazol-1-yl)-ethyl)-4-(5-phenyl-1,3,4-oxadiazol-2-yl)benzamide]",6.0,,
"O=C(N[C@@H](Cn1ccnc1)c1ccc(Cl)cc1Cl)c1ccc(-c2nnc(-c3ccccc3)o2)cc1 [VNI, (R)-N-(1-(2,4-dichlorophenyl)-2-(1H-imidazol-1-yl)-ethyl)-4-(5-phenyl-1,3,4-oxadiazol-2-yl)benzamide]",50,,
CC(C)=CCC[C@@H](C)[C@H]1CC[C@@]2(C)[C@@H]3CC[C@H]4C(C)(C)[C@@H](O)CC[C@@]45C[C@@]35CC[C@]12C [cycloartenol],,25,
CC(C)=CCC[C@@H](C)[C@H]1CC[C@@]2(C)C3=C(CC[C@]12C)[C@@]1(C)CC[C@H](O)C(C)(C)[C@@H]1CC3 [lanosterol],,70,kcat (N. fowleri CYP51 [5]): 1.07 s⁻¹
CC(C)=CCC[C@@H](C)[C@H]1CC[C@@]2(C)C3=C(CC[C@]12C)[C@@]1(C)CC[C@H](O)[C@H](C)[C@@H]1CC3 [norlanosterol],,94,
C=C(CC[C@@H](C)[C@H]1CC[C@@]2(C)C3=C(CC[C@]12C)[C@@]1(C)CC[C@H](O)[C@@H](C)[C@@H]1CC3)C(C)C [obtusifoliol],,90,kcat (N. fowleri CYP51 [5]): 0.433 s⁻¹
"CC[C@@H]([C@H](C)O)n1ncn(-c2ccc(N3CCN(c4ccc(OC[C@@H]5CO[C@@](Cn6cncn6)(c6ccc(F)cc6F)C5)cc4)CC3)cc2)c1=O [posaconazole, reference compound]",2.0,,
